This is an account of results in DBAASP.

Molecules are shown by their SMILES. In brackets after ≈: the same amount, converted by molar mass.

Common to all, as to assay: ≥ marks a high value that may be exact or a test limit, other limits are often not marked, values filed in µg/mL are converted to µM
In experiment [1] the test system is Bacillus cereus ATCC 11778.
Experiment [2] deals with Staphylococcus aureus ATCC 25923.
In experiment [3] the test system is Escherichia coli ATCC 35218.
In experiment [4] the test system is Pseudomonas aeruginosa ATCC 9027.
Experiment [5] relates to Escherichia coli JW0013.

In the case of `CC(C)C[C@H](NC(=O)[C@H](CC(C)C)NC(=O)[C@@H](N)[C@@H](C)O)C(=O)N[C@@H](CCCCN)C(=O)N[C@@H](CCCCN)C(=O)N[C@H](C(=O)N[C@@H](CC(C)C)C(=O)N[C@@H](CCCCN)C(=O)N[C@@H](C)C(=O)N[C@@H](C)C(=O)N[C@@H](C)C(N)=O)C(C)C` [TLLKKVLKAAA], the MIC was at least 50 µM in experiment [1], over 50 µM in experiment [2], at least 50 µM in experiment [3] and over 50 µM in experiment [4].

Molecule `CC[C@H](C)[C@H](NC(=O)[C@@H]1CCCN1C(=O)[C@H](CCCCN)NC(=O)[C@@H]1CCCN1C(=O)[C@@H]1CCCN1C(=O)[C@@H](NC(=O)[C@@H]1CCCN1C(=O)[C@H](CCCN=C(N)N)NC(=O)[C@@H]1CCCN1C(=O)[C@H](CC(C)C)NC(=O)[C@H](Cc1ccc(O)cc1)NC(=O)[C@H](CO)NC(=O)CNC(=O)[C@H](CCCCN)NC(=O)[C@H](CC(=O)O)NC(=O)[C@@H](N)C(C)C)[C@@H](C)O)C(=O)N[C@@H](Cc1ccc(O)cc1)C(=O)N[C@@H](CC(N)=O)C(=O)N[C@@H](CCCN=C(N)N)C(=O)N[C@@H](CC(N)=O)C(=O)O` [VDKGSYLPRPTPPKPIYNRN] returned an MIC in experiment [5] of 0.3 µM (≈ 0.694 µg/mL).

In experiment [5], `CC[C@H](C)[C@H](NC(=O)[C@@H]1CCCN1C(=O)[C@H](CCCN=C(N)N)NC(=O)[C@@H]1CCCN1C(=O)[C@@H]1CCCN1C(=O)[C@@H](NC(=O)[C@@H]1CCCN1C(=O)[C@H](CCCN=C(N)N)NC(=O)[C@@H]1CCCN1C(=O)[C@H](CCCN=C(N)N)NC(=O)[C@H](Cc1ccc(O)cc1)NC(=O)[C@H](CO)NC(=O)CNC(=O)[C@H](CCCCN)NC(=O)[C@H](CC(=O)O)NC(=O)[C@@H](N)C(C)C)[C@@H](C)O)C(=O)N[C@@H](Cc1ccc(O)cc1)C(=O)N[C@@H](CC(N)=O)C(=O)N[C@@H](CCCN=C(N)N)C(=O)N[C@@H](CC(N)=O)C(=O)O` [VDKGSYRPRPTPPRPIYNRN] registered an MIC of 0.3 µM (≈ 0.715 µg/mL).

Molecule `CC[C@H](C)[C@H](NC(=O)[C@H](CCCN=C(N)N)NC(=O)[C@H](CCCN=C(N)N)NC(=O)[C@@H]1CCCN1C(=O)[C@@H]1CCCN1C(=O)[C@H](CCCN=C(N)N)NC(=O)[C@@H]1CCCN1C(=O)[C@H](CCSC)NC(=O)[C@@H]1CCCN1C(=O)[C@H](CC(C)C)NC(=O)[C@H](Cc1ccc(O)cc1)NC(=O)[C@@H]1CCCN1C(=O)[C@@H]1CCCN1C(=O)[C@H](CCCCN)NC(=O)[C@H](CC(=O)O)NC(=O)[C@@H](N)C(C)C)C(=O)N[C@@H](Cc1ccc(O)cc1)C(=O)N[C@@H](CC(N)=O)C(=O)N[C@@H](CCCN=C(N)N)C(N)=O` [VDKPPYLPMPRPPRRIYNR] came in with a minimal inhibitory concentration (MIC) in experiment [5] of 2.03 µM (≈ 4.8 µg/mL).

Turning to `CC[C@H](C)[C@H](NC(=O)[C@H](CCCN=C(N)N)NC(=O)[C@H](CCCN=C(N)N)NC(=O)[C@@H]1CCCN1C(=O)[C@@H]1CCCN1C(=O)[C@H](CCCN=C(N)N)NC(=O)[C@H](CCCN=C(N)N)NC(=O)[C@H](CCCN=C(N)N)NC(=O)[C@@H]1CCCN1C(=O)[C@H](CC(C)C)NC(=O)[C@H](CCCN=C(N)N)NC(=O)[C@@H]1CCCN1C(=O)[C@H](CCCN=C(N)N)NC(=O)[C@H](CCCCN)NC(=O)[C@H](CC(=O)O)NC(=O)[C@@H](N)C(C)C)C(=O)N[C@@H](Cc1ccc(O)cc1)C(=O)N[C@@H](CC(N)=O)C(=O)N[C@@H](CCCN=C(N)N)C(N)=O` [VDKRPRLPRRRPPRRIYNR], in experiment [5], the MIC worked out at 0.959 µM (≈ 2.4 µg/mL).

What is called MIC is the smallest concentration in the dilution series that meets the test's criterion for growth inhibition.
